# Source: patent US20200306213A1, “COMPOUNDS FOR USE IN THE TREATMENT OR PREVENTION OF LOWE SYNDROME OR DENT DISEASE AND METHODS THEREFOR” (Université de Montréal, priority 2017, published 2020)
# Columns and labels:
# [1] = tested on: control Drosophila S2 cells; assay: Cytokinesis / multinucleation assay in control Drosophila S2 cells; format: cell-based; settings: 50 μM, 24 hours
# Procedure: (§1) Drosophila S2 cells were grown in Schneider's Drosophila medium complemented with FBS, Penicillin and Streptomycin (Invitrogen). […] Cells were fixed and labelled for F-Actin (red) and DNA (blue). Images are shown in FIGS. 1(a) to 1(c) in which stars mark multinucleated cells. The histogram of FIG. 2 represents the percentage of multinucleated cells quantified following the indicated treatments. Each P-values were calculated against dOCRL dsRNA treated cells.
# [2] = tested on: dOCRL dsRNA treated Drosophila S2 cells; assay: Cytokinesis / multinucleation assay in dOCRL dsRNA treated Drosophila S2 cells; format: cell-based; settings: dOCRL depleted S2 cells, 50 μM, 24 hours
# Procedure: as §1
# [3] = tested on: renal epithelial cells from a Lowe syndrome patient; assay: Abscission assay (time-lapse) in renal epithelial cells from a Lowe syndrome patient; format: cell-based, human; settings: 25 μM, 60 hours time-lapse recording
# Procedure: (§2) Further tests were carried out using human cellular models for the Lowe syndrome.
# In this experiment, normal renal epithelial cells from a donor not mutated in OCRL1 and renal epithelial cells from a Lowe syndrome patient were grown in DMEM/F12 (Gibco BRL) supplemented with 10% fetal bovine serum, ITS supplemented, 4 pg/mL triiodothyronine, 36 ng/mL dexamethasone, 10 ng/ml EGF, 100 U/mL penicillin/streptomycin and 2 mM glutamine at 33° C.
# Cell divisions were recorded by time-lapse microscopy using a Nikon Eclipse Ti Inverted Microscope. The curves represent the cumulative distribution of the abscission times in the indicated cell populations (see FIG. 3). […] Comparatively, abscission delay observed in Lowe patient cells was not corrected by treatment with o-3M3FBS.
# [4] = tested on: normal renal epithelial cells from a donor not mutated in OCRL1; assay: Abscission assay (time-lapse) in normal renal epithelial cells; format: cell-based, human; settings: 25 μM, 60 hours time-lapse recording
# Procedure: Further tests were carried out using human cellular models for the Lowe syndrome. […] In this experiment, normal renal epithelial cells from a donor not mutated in OCRL1 and renal epithelial cells from a Lowe syndrome patient were grown in DMEM/F12 (Gibco BRL) supplemented with 10% fetal bovine serum, ITS supplemented, 4 pg/mL triiodothyronine, 36 ng/mL dexamethasone, 10 ng/ml EGF, 100 U/mL penicillin/streptomycin and 2 mM glutamine at 33° C. […] Cell divisions were recorded by time-lapse microscopy using a Nikon Eclipse Ti Inverted Microscope. The curves represent the cumulative distribution of the abscission times in the indicated cell populations (see FIG. 3). […] Comparatively, abscission delay observed in Lowe patient cells was not corrected by treatment with o-3M3FBS.
# [5] = tested on: OCRL1-depleted HeLa cells; assay: Abscission assay (time-lapse) in OCRL1-depleted HeLa cells; format: cell-based, human; settings: OCRL1 siRNA-depleted HeLa cells, 25 μM, 60 hours time-lapse recording, compared to DMSO alone
# Procedure: as §2
# Human HeLa epithelial cells were grown in DMEM medium (Gibco BRL) supplemented with 10% fetal bovine serum, 100 U/ml penicillin/streptomycin and 2 mM glutamine at 37° C. HeLa cells were depleted in OCRL1 by transfecting control siRNAs (5′-CGUACGCGGAAUACUUCGA-3′) or OCRL1 RNAi (5′-GAAAGGAUCAGUGUCGAUA-3′) specific siRNAs for 72 h before imaging using HiPerFect reagents (Qiagen).
# Cell divisions were recorded by time-lapse microscopy using a Nikon Eclipse Ti Inverted Microscope. The curves represent the cumulative distribution of the abscission times in the indicated cell populations (see FIG. 5).
# [6] = tested on: wildtype zebrafish embryos; assay: Pronephric uptake of Alexa 488-10 kDa dextran in wildtype zebrafish embryos; format: in vivo; settings: wildtype embryos at 72 hpf, 5 μM in the water, assessed 2 hours after tracer injection
# Procedure: (§3) Finally, to test whether activation of PLC rescues phenotypes induced by loss of OCRL1 in an in vivo context, a previously established Ocrl−/− mutant zebrafish model for Lowe syndrome was used (Ramirez I. B. et al., 2012, Hum. Mol. Genet., 21, 1744-59, Oltrabella F., et al., 2015, PLoS Genetics, 11(4):e1005058). Wild type fish were of AB background.
# (§4) Lysine-fixable 10 kDa dextran labelled with Alexa 488 (Molecular Probes) was prepared in PBS at 2 μg/μl final concentration. Zebrafish embryos at 72 hpf (hours post fertilisation) were treated for 60 minutes with DMSO control (0.005% DMSO), 5 μM m-3M3FBS or 5 μM o-3M3FBS by addition to the water. Embryos were then anaesthetised with 0.2 mg/ml MS222 (Sigma) in chorion water, and the tracer Alexa 488-10 kDa dextran (green) was injected into the common cardinal vein using a glass micropipette PLI-90 Pico-Injector (Harvard Apparatus). Embryos were returned to the respective drug treatments and incubated at 29° C. Pronephric accumulation was assessed 2 hours after injection on whole mount embryos using a fluorescent dissecting stereomicroscope (Leica MZ10F). Statistical analysis was performed using the Pearson's chi-squared test with Prism software (Prism Software Corporation).
# [7] = tested on: Ocrl−/− mutant zebrafish embryos; assay: Pronephric uptake of Alexa 488-10 kDa dextran in Ocrl−/− mutant zebrafish embryos; format: in vivo; settings: OCRL1 mutant embryos at 72 hpf, 5 μM in the water, assessed 2 hours after tracer injection
# Procedure: as §3, §4
smiles,measurement,setting,value
"Cc1cc(C)c(S(=O)(=O)Nc2cccc(C(F)(F)F)c2)c(C)c1 [m-3M3FBS, 2,4,6-trimethyl-N-(m-3-trifluoromethylphenyl) benzene sulfonamide]",effect on cytokinesis (multinucleated cells),[1],did not perturb cytokinesis
same,effect on cytokinesis failure / multi-nucleation rate,[2],prevented cytokinesis failure
same,correction of abscission delay,[3],fully corrected
same,effect on timing of abscission,[4],not affected
same,correction of abscission delay,[5],showed correction of the abscission delay
same,effect on renal (pronephric) uptake of tracer,[6],no effect upon renal uptake
same,rescue of endocytosis in the renal tubule (pronephric uptake of tracer),[7],efficiently rescued endocytosis
"Cc1cc(C)c(S(=O)(=O)Nc2ccccc2C(F)(F)F)c(C)c1 [o-3M3FBS, reference compound]",effect on cytokinesis failure / multi-nucleation rate,[2],did not significantly modify the multi-nucleation rate
same,correction of abscission delay,[3],not corrected
same,correction of abscission delay,[5],no significant effect on abscission
same,effect on renal (pronephric) uptake of tracer,[6],no effect
same,rescue of endocytosis in the renal tubule (pronephric uptake of tracer),[7],no effect
